Among the test systems are A549; CAKI-1; CCRF-CEM; NCI-H23; K562; SK-MEL-2; SF-539; HCT-15; MDA-N; SK-OV-3; TK-10; U-251; NCI-H522; UO-31; SF-295; SNB-19; MCF7; NCI/ADR-RES; NCI-H226; HCC 2998.
Test in all cases: NCI anticancer screen, dose series, 48 h

SMILES strings stand for the structures.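 1) Cells in 96-well plates. 2) Compound, 48 h, 5 concentrations. 3) Linear interpolation between surrounding doses. 4) Unreached endpoint = highest concentration. GI50 = concentration required for 50% inhibition of growth.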 Active and inactive are the calls of the source. Cut-off read from the data, not from the text of the source: active = GI50 up to about 1.1 µM and inactive = higher.

Take `CC(C)(C)c1ccc(O)c(C[N+](C)(C)C)c1`: the GI50 was > 100 µM (inactive) in the assay on A549; > 100 µM (inactive) in the assay on CAKI-1; > 100 µM (inactive) in the assay with CCRF-CEM; > 100 µM (inactive) in the assay with NCI-H23; 95.5 µM (inactive) with K562; > 100 µM (inactive) in the assay on SK-MEL-2. Besides, the GI50 in the assay on SF-539 was > 100 µM (inactive); with HCT-15, more than 100 µM; in the assay with MDA-N it was > 100 µM (inactive); in the assay on SK-OV-3 it was > 100 µM (inactive); in the assay on TK-10 it was > 100 µM (inactive); in the assay on U-251 it was > 100 µM (inactive). The GI50 in the assay on NCI-H522 is 34.3 µM (inactive); in the assay with UO-31, > 100 µM (inactive); with SF-295, > 100 µM (inactive); in the assay on SNB-19, > 100 µM (inactive); with MCF7, > 100 µM (inactive); in the assay with NCI/ADR-RES, > 100 µM (inactive).

As to `NNC(=O)Cn1c2ccc(Br)cc2c2nc3ccccc3nc21`, the GI50 in the assay on A549 is 94.8 µM (inactive); with CAKI-1, > 100 µM (inactive); with NCI-H23, 20.4 µM (inactive); with K562, 33.8 µM (inactive); with SK-MEL-2, 19.1 µM (inactive); in the assay with NCI-H226, > 100 µM (inactive). Also, the GI50 in the assay on SF-539 was > 100 µM (inactive); with MDA-N it was > 100 µM (inactive); in the assay with SK-OV-3 it was 43.7 µM (inactive); with TK-10, 56 µM (inactive); in the assay on U-251 it was 43.7 µM (inactive); with UO-31, 19.9 µM (inactive). Besides, the GI50 was 21.8 µM (inactive) in the assay on SF-295, 80 µM (inactive) in the assay with SNB-19, 69.3 µM (inactive) with MCF7 and > 100 µM (inactive) in the assay on NCI/ADR-RES.

For `O=C(c1ccccc1)n1[nH]c(=O)n(-c2ccc(Cl)cc2)c1=O`, the GI50 with A549, in the assay with CAKI-1, in the assay with CCRF-CEM, in the assay with NCI-H23, in the assay with K562 and with HCC 2998 was > 100 µM (inactive) throughout. In addition, the GI50 in the assay with SK-MEL-2 was > 100 µM (inactive); in the assay on NCI-H226, > 100 µM (inactive); in the assay with HCT-15 it was more than 100 µM; with MDA-N, > 100 µM (inactive); with SK-OV-3, > 100 µM (inactive); in the assay with TK-10 it was > 100 µM (inactive). Moreover, the GI50 with U-251 is > 100 µM (inactive); in the assay with UO-31, > 100 µM (inactive); in the assay with SF-295, > 100 µM (inactive); in the assay on SNB-19, 39 µM (inactive); with MCF7, > 100 µM (inactive); with NCI/ADR-RES, > 100 µM (inactive).

Turning to `CC(=O)OCC1OC(n2c(-c3ccccc3)c(/N=N/c3ccccc3)c(C)c(C#N)c2=S)C(OC(C)=O)C(OC(C)=O)C1OC(C)=O` (stereo not given), the GI50 with A549, with CAKI-1, in the assay on CCRF-CEM, in the assay on NCI-H23, in the assay with K562 and in the assay on HCC 2998 was > 100 µM (inactive) each time. Further, the GI50 was > 100 µM (inactive) with SK-MEL-2; > 100 µM (inactive) in the assay with SF-539; more than 100 µM with HCT-15; > 100 µM (inactive) in the assay on MDA-N; > 100 µM (inactive) in the assay with SK-OV-3; > 100 µM (inactive) with TK-10. The GI50 in the assay with U-251, in the assay on UO-31, in the assay on SF-295, in the assay with SNB-19, in the assay on MCF7 and in the assay on NCI/ADR-RES was > 100 µM (inactive) in each case.

The record behind these values is ChEMBL document CHEMBL1201862, “PubChem BioAssay data set” (2004).
